Test [1] concerns male mice B6 Lep ob/ob. In words: In-vivo testing for regulation of triglycerides in blood, obese mice on high fat diet. To be noted: for triglicerides blood levels (result in words): obese mice fed with high fat diet. From the text:
The study was done using six weeks old male mice B6 Lep ob/ob, obtained from Charles River (France). Mice were divided in 3 groups : I (control), II (vehicle), III (example 0).
The animals of the group I received the standard diet (D-12450B, Research Diets, NJ, USA).
The animals of the groups II and III were fed with a High Fat Diet (D-12492, Research Diets, NJ, USA), in both cases for 7 weeks (References 1 and 2).
The animals of the groups III were fed with a High Fat Diet (D-12492, Research Diets, NJ, USA), in both cases for 7 weeks (References 1 and 2).
At the end of the feeding period of 7 weeks, it was started the treatment period (14 days): Group II mice received the vehicle (10 ml/kg/day, po, of the aqueous solution of acacia gum, 5% WN). Group III was administered with 30 mg/kg/day, po, of the inventive compound 5-(4-chlorophenyl)-1-(2,4-dichlorophenyl)-4,5-dihydro-pyrazole-3-carboxylic acid according to Example 0. Group I didn't received any treatment. The three groups of mice had the same diet than in the previous period.
At the end of the 14 days period of treatment, the blood levels of triglicerides of the animals were determined.
The analysis of the whole blood samples was done using test strips "Lipid panel" and the photometric Analyzer Cardio-Check Test System, from PA Instruments Polymer Technology Systems Indianapolis, IN-46268, USA (Distributed in Spain by Novalab Iberica S.A.L, Madrid, Spain).

For test [2], the target named is T1, CB2-Receptor (Homo sapiens, UniProt P34972).
T1 construct: purchased Receptor Biology, Inc
T1 sequence (P34972 whole entry): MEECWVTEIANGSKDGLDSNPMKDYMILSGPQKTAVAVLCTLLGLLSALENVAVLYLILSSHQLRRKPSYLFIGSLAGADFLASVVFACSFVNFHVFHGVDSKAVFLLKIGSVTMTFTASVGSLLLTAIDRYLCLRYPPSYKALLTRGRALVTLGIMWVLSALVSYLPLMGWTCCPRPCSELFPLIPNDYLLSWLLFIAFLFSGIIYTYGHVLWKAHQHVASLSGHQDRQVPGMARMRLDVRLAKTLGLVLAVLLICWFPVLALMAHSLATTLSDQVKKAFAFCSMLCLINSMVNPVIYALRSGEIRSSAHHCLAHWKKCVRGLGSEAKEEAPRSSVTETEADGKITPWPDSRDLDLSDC
In words: In-vitro determination of affinity to CB2 receptor (radioligand [3H]-CP55940). In kind it is binding. As for the experimental part:
(§1) The in-vitro determination of the affinity of the inventive substituted pyrazoline compounds to CB1/CB2-Rezeptors is carried out as described in the publication of Ruth A. Ross, Heather C. Brockie et al., "Agonist-inverse agonist characterization at CB1 and CB2 cannabinoid receptors of L-759633, L759656 and AM630", British Journal of Pharmacology, 126, 665-672, (1999), whereby the transfected human CB1 and CB2 receptors of Receptor Biology, Inc. are used. The radioligand used for both receptors is [^3H]-CP55940. The respective parts of the description is hereby incorporated by reference and forms part of the present disclosure.
(§2) The affinity of the inventive substituted pyrazoline compounds to CB1/CB2 receptors was determined as described above.

Test [3] concerns the target T2, CB1-Receptor (Homo sapiens, UniProt P21554).
T2 construct: purchased Receptor Biology, Inc
In words: In-vitro determination of affinity to CB1 receptor (radioligand [3H]-CP55940). Format: binding. As for the experimental part: as §1, §2

From patent EP1743643A1, “New formulations of substituted pyrazoline compounds” (LABORATORIOS DEL DR. ESTEVE, S.A., priority 2005, dated 2007) come the findings set out here.

Each structure is given as a SMILES string. pKi: −log10 of the molar value.

T2 sequence (P21554 whole entry): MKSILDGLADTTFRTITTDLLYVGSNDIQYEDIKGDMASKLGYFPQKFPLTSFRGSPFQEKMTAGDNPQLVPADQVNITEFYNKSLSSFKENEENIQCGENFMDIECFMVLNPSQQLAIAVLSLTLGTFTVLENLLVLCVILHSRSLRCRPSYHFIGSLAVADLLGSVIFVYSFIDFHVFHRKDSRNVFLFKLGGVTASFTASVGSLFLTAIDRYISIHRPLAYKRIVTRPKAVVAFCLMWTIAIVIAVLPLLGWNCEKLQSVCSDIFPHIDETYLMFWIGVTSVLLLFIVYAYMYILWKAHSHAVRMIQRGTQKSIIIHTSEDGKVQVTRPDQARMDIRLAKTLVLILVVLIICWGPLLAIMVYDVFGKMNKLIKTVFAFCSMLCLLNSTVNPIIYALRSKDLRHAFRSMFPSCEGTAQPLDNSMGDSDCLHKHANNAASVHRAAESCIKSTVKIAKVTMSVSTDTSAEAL

With `O=C(O)C1=NN(c2ccc(Cl)cc2Cl)C(c2ccc(Cl)cc2)C1` (stereo not shown) [Example 0, 5-(4-chlorophenyl)-1-(2,4-dichlorophenyl)-4,5-dihydro-pyrazole-3-carboxylic acid], the “Triglicerides, whole blood levels (mg/dl)” value in test [1] (High Fat diet, 30 mg/kg/day po, 14 days of treatment, B6 Lep ob/ob mice) was 67.5 (N.S.) mg/dl. For the same molecule, the “triglicerides blood levels (result in words)” value in test [1] is given as “inhibitor of high blood levels of triglicerides”; in test [1] (listed as Example 8) it was “improved the triglicerides blood levels”. This molecule showed a Relative levels in test [1] (triglicerides relative to Group I (standard diet, 100%), High Fat diet, 30 mg/kg/day po, 14 days) of 110.6%.
As a reminder, the pKi is the negative decadic logarithm of the Ki, by convention in mol/L. A higher pKi goes with a small Ki. For `O=C(NN1CCCCC1)C1=NN(c2ccc(Cl)cc2Cl)C(c2ccc(Cl)cc2)C1` (stereo not shown) [Example 1, N-piperidinyl-5-(4-chlorophenyl)-1-(2,4-dichlorophenyl)-4,5-dihydro-1H-pyrazole-3-carboxamide], the results for the negative logarithm of the Ki (pKi) in test [2] and in test [3] were below 6.00 and above 7.60, respectively.
For the molecule `O=C(C1=NN(c2ccc(Cl)cc2Cl)C(c2ccc(Cl)cc2)C1)N1CCCCC1` (stereo not shown) [Example 5, [5-(4-Chloro-phenyl)-1-(2,4-dichloro-phenyl)-4,5-dihydro-1H-pyrazol-3-yl]-piperidin-1-yl-methanone], the pKi in test [2] is around 6.00.
